Measurements taken from US6281342A, “Pradimicin compounds” (Bristol-Myers Squibb Company, priority 1994, dated 2001).
In brackets after ≈: the same amount, converted by molar mass. Where two headings read alike, the source gives them in different places.

Assays:
[1] = system: Trichophyton mentagrophytes #4329; assay: MIC, two-fold agar dilution, T. mentagrophytes #4329; assay type: cell-based
Procedure: (§1) Minimum inhibitory concentrations (MICs) of nine 4'-N-substituted pradimicin derivatives were determined by two-fold agar dilution method on phosphate-buffered yeast morphology agar (YMA, pH 7.0, Difco Laboratories). A 5-μl of fungal cell suspension containing 2×10^6 cells/ml (2×10^7 cells/ml for Trichophyton mentagrophytes) were spotted on the surface of the agar plates containing test compound. MICs were recorded after 40-hour incubation at 28° C. except for T. mentagrophytes, which required 60-hour incubation to produce visually evaluable growth on the drug-free control plates and were defined as the lowest antibiotic concentrations showing no growth or less than five discrete colonies per spot.
(§2) Medium: yeast morphology agar + 1/15 M phosphate buffer (pH 7.0)
(§3) Incubation conditions: 28° C., 40 hours (C. albicans ATCC 38247 & T.
(§4) mentagrophytes #4329: 28° C., 60 hours).
(§5) Medium: Yeast morphology agar + 1/15 phosphate buffer (pH 7.0).

Candida albicans A9540 [2] = assay: MIC, two-fold agar dilution, C. albicans A9540; assay type: cell-based
Procedure: as §1, §2, §3, §5

[3] = system: Candida tropicalis IFO 10241; assay: MIC, two-fold agar dilution, C. tropicalis IFO 10241; assay type: cell-based; conditions: IFO10241, YMA pH 7.0, 28° C., 40 hours
Procedure: as §1, §2, §3, §5

[4] = system: Candida albicans ATCC 32354; assay: MIC, two-fold agar dilution, C. albicans ATCC 32354; assay type: cell-based; conditions: ATCC32354, YMA pH 7.0, 28° C., 40 hours
Procedure: as §1, §2, §3, §5

[5] = system: Cryptococcus neoformans IAM 4514; assay: MIC, two-fold agar dilution, C. neoformans IAM 4514; assay type: cell-based; conditions: IAM4514
Procedure: as §1, §2, §3, §5

[6] = system: Candida albicans IAM 4888; assay: MIC, two-fold agar dilution, C. albicans IAM 4888; assay type: cell-based; conditions: IAM4888, YMA pH 7.0, 28° C., 40 hours
Procedure: as §1, §2, §3, §5

[7] = system: Saccharomyces cerevisiae ATCC 9763; assay: MIC, two-fold agar dilution, S. cerevisiae ATCC 9763; assay type: cell-based; conditions: ATCC9763, YMA pH 7.0, 28° C., 40 hours
Procedure: as §1, §2, §3, §5

[8] = system: Cryptococcus neoformans D49; assay: MIC, two-fold agar dilution, C. neoformans D49; assay type: cell-based; conditions: YMA pH 7.0, 28° C., 40 hours
Procedure: as §1, §2, §3, §5

[9] = system: Aspergillus fumigatus IAM 2034; assay: MIC, two-fold agar dilution, A. fumigatus IAM 2034; assay type: cell-based; conditions: IAM2034
Procedure: as §1, §2, §3, §5

Candida albicans 83-2-14 = assay: MIC, two-fold agar dilution, C. albicans 83-2-14; assay type: cell-based; conditions: 83214, YMA pH 7.0, 28° C., 40 hours
Procedure: as §1, §2, §3, §5

Candida tropicalis 85-8 = assay: MIC, two-fold agar dilution, C. tropicalis 85-8; assay type: cell-based; conditions: 858, YMA pH 7.0, 28° C., 40 hours
Procedure: as §1, §2, §3, §5

[10] = system: Candida albicans ATCC 38247; assay: MIC, two-fold agar dilution, C. albicans ATCC 38247; assay type: cell-based; conditions: ATCC38247, YMA pH 7.0, 28° C., 60 hours (table footnote)
Procedure: as §1, §2, §3, §4, §5

Candida albicans A9540 [11] = assay: animal or person; assay type: in vivo, male ICR mice infected with Candida albicans A9540
Procedure: The in vivo therapeutic efficacies of seven 4'-N-substituted pradimicin derivatives, KHM-1, KHM-2, KHM-3, KHM-4, KHM-5, KHM-6 and KHM-7 were evaluated in the mouse infected with Candida albicans A9540 and Aspergillus fumigatusIAM 2034. Groups of five specific-pathogen-free male ICR mice weighing 20-25 g at each dose level were intravenously infected with approximately 10 times the 50% lethal dose of C. albicans A9540 (1×10^6 cells/mouse) or A. fumigatus IAM 2034 (1×10^7 cells/mouse). Immediately after the fungal infection, test compounds dissolved with 10% DMSO in distilled water were intravenously given to the mouse at the dosed volume of 0.1 ml/10 g of body weight. […] Untreated control animals died 7 to 13 days post-infection.

[12] = Table 3, Trichophyton mentagrophytes #4329, YMA, read-out: MIC TM-4
[13] = Trichophyton mentagrophytes #4329, YMA pH 7.0, 28° C., 60 hours, read-out: MIC
[14] = Candida albicans A9540, YMA pH 7.0, 28° C., 40 hours, read-out: MIC
[15] = Table 3, Candida albicans A9540, YMA, read-out: MIC Ca-4
[16] = Cryptococcus neoformans IAM 4514, YMA pH 7.0, 28° C., 40 hours, read-out: MIC
[17] = Table 3, Cryptococcus neoformans IAM 4514, YMA, read-out: MIC Cn-2
[18] = Aspergillus fumigatus IAM 2034, YMA pH 7.0, 28° C., 40 hours, read-out: MIC
[19] = Table 3, Aspergillus fumigatus IAM 2034, YMA, read-out: MIC Af-3

SMILES | MIC [1, 12] [µg/mL] | MIC [1, 13] [µg/mL] | MIC (Candida albicans A9540 [2]; [14]) [µg/mL] | MIC (Candida albicans A9540 [2]; [15]) [µg/mL] | MIC [3] [µg/mL] | MIC [4] [µg/mL] | MIC [5, 16] [µg/mL] | MIC [5, 17] [µg/mL] | MIC [6] [µg/mL] | MIC [7] [µg/mL] | MIC [8] [µg/mL] | MIC [9, 18] [µg/mL] | MIC [9, 19] [µg/mL] | MIC (Candida albicans 83-2-14) [µg/mL] | MIC (Candida tropicalis 85-8) [µg/mL] | also measured
COc1cc(O)c2c(c1)C(=O)c1c(cc3c(c1O)-c1c(cc(C)c(C(=O)N[C@H](C)C(=O)O)c1O)[C@H](O[C@@H]1O[C@H](C)[C@H](NC(=N)N)[C@H](O[C@@H]4OC[C@@H](O)[C@H](O)[C@H]4O)[C@H]1O)[C@H]3O)C2=O [KHM-8, 4'-Guanidinopradimicin C] | 3.1 (≈ 3.57 µM) | 3.1 (≈ 3.57 µM) | 12.5 (≈ 14.4 µM) | 12.5 (≈ 14.4 µM) | > 100 | 12.5 (≈ 14.4 µM) | 6.3 (≈ 7.25 µM) | 6.3 (≈ 7.25 µM) | 12.5 (≈ 14.4 µM) | 25 (≈ 28.8 µM) | 6.3 (≈ 7.25 µM) | 3.1 (≈ 3.57 µM) | 3.1 (≈ 3.57 µM) | > 100 | > 100 | 
COc1cc(O)c2c(c1)C(=O)c1c(cc3c(c1O)-c1c(cc(C)c(C(=O)N[C@H](C)C(=O)O)c1O)[C@H](O[C@@H]1O[C@H](C)[C@H](NC=N)[C@H](O[C@@H]4OC[C@@H](O)[C@H](O)[C@H]4O)[C@H]1O)[C@H]3O)C2=O [KHM-9, 4'-Amidinopradimicin C] | 3.1 (≈ 3.63 µM) | 3.1 (≈ 3.63 µM) | 12.5 (≈ 14.6 µM) | 12.5 (≈ 14.6 µM) | > 100 | 6.3 (≈ 7.38 µM) | 3.1 (≈ 3.63 µM) | 3.1 (≈ 3.63 µM) | 6.3 (≈ 7.38 µM) | 1.6 (≈ 1.87 µM) | 12.5 (≈ 14.6 µM) | 1.6 (≈ 1.87 µM) | 1.6 (≈ 1.87 µM) | 12.5 (≈ 14.6 µM) | 50 (≈ 58.6 µM) | 
COc1cc(O)c2c(c1)C(=O)c1c(cc3c(c1O)-c1c(cc(C)c(C(=O)N[C@H](C)C(=O)O)c1O)[C@H](O[C@@H]1O[C@H](C)[C@H](N)[C@H](O[C@@H]4OC[C@@H](O)[C@H](O)[C@H]4O)[C@H]1O)[C@H]3O)C2=O [Pradimicin C] | 3.1 (≈ 3.75 µM) | 3.1 (≈ 3.75 µM) | 25 (≈ 30.2 µM) | 25 (≈ 30.2 µM) | 100 (≈ 121 µM) | 6.3 (≈ 7.62 µM) | 0.8 (≈ 0.968 µM) | 0.8 (≈ 0.968 µM) |  | 6.3 (≈ 7.62 µM) | 0.8 (≈ 0.968 µM) | 3.1 (≈ 3.75 µM) | 3.1 (≈ 3.75 µM) | 50 (≈ 60.5 µM) | 100 (≈ 121 µM) | MIC [10]: 3.1 µg/mL (≈ 3.75 µM); ED50 (Candida albicans A9540 [11]; 480 h, Table 3, Candida albicans A9540, iv, read-out: PD50 (mice) Ca-4): 14 mg/kg; responders at 6.3 mg/kg (Candida albicans A9540 [11]; Candida albicans, A9540, 480 h, C. albicans, mice, 6.3 mg/kg iv, 20th day post-infection, read-out: S/T (No. of survivors/tested) (converted)): 40%; responders at 12.5 mg/kg (Candida albicans A9540 [11]; Candida albicans, A9540, 480 h, C. albicans, mice, 12.5 mg/kg iv, 20th day post-infection, read-out: S/T (No. of survivors/tested) (converted)): 40%; responders at 25 mg/kg (Candida albicans A9540 [11]; Candida albicans, A9540, 480 h, C. albicans, mice, 25 mg/kg iv, 20th day post-infection, read-out: S/T (No. of survivors/tested) (converted)): 100%; responders at 50 mg/kg (Candida albicans A9540 [11]; Candida albicans, A9540, 480 h, C. albicans, mice, 50 mg/kg iv, 20th day post-infection, read-out: S/T (No. of survivors/tested) (converted)): 0%; ED50 (Candida albicans A9540 [11]; Candida albicans, A9540, 480 h, Table 2, C. albicans, mice, iv, 95% confidence limits in parentheses, read-out: PD50 (50% protection dose)): 13 mg/kg
